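Test compounds were applied to cells in 96-well plates for 48 hours at 5 doses. Abbreviation: GI50, concentration required for 50% inhibition of growth. TGI: concentration producing complete growth inhibition.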
What was measured:
Experiment in all cases: DTP human tumour cell line panel, 48 h
KM12 colon = tested on: KM12 colon
A549 NSCLC = tested on: A549 NSCLC
T-47D breast = tested on: T-47D breast
RPMI-8226 leukemia = tested on: RPMI-8226 leukemia
BT-549 breast = tested on: BT-549 breast
SNB-19 CNS = tested on: SNB-19 CNS
NCI-H522 lung = tested on: NCI-H522 lung
A498 renal = tested on: A498 renal
SR leukemia = tested on: SR leukemia
HOP-62 NSCLC = tested on: HOP-62 NSCLC

| SMILES | GI50 (KM12 colon) | TGI (KM12 colon) | GI50 (A549 NSCLC) | TGI (A549 NSCLC) | GI50 (T-47D breast) | TGI (T-47D breast) | GI50 (RPMI-8226 leukemia) | TGI (RPMI-8226 leukemia) | GI50 (BT-549 breast) | TGI (BT-549 breast) | GI50 (SNB-19 CNS) | TGI (SNB-19 CNS) | GI50 (NCI-H522 lung) | TGI (NCI-H522 lung) | GI50 (A498 renal) | TGI (A498 renal) | GI50 (SR leukemia) | TGI (SR leukemia) | GI50 (HOP-62 NSCLC) | TGI (HOP-62 NSCLC) |
| --- | --- | --- | --- | --- | --- | --- | --- | --- | --- | --- | --- | --- | --- | --- | --- | --- | --- | --- | --- | --- |
| CC1(C)N=C(N)N=C(N)N1c1ccc(CCC(=O)Nc2ccc(S(=O)(=O)F)cc2)c(Cl)c1 | 0.243 µM | 28.3 µM | 0.517 µM | > 100 µM | 12.4 µM | > 100 µM | 0.515 µM | > 100 µM | 0.995 µM | > 100 µM | 5.22 µM | > 100 µM | 0.642 µM | > 100 µM | 61.9 µM | > 100 µM | 0.179 µM | > 100 µM | 1.86 µM | > 100 µM |
| NC(CSC(c1ccccc1)(c1ccccc1)c1ccccc1)C(=O)NCC(=O)O (stereo not given) | 3.96 µM | 38.4 µM | 8 µM | > 100 µM | 11.6 µM | > 100 µM | 3.42 µM | 24.5 µM | 10.1 µM | > 100 µM | 8.33 µM | > 100 µM | 2.39 µM | 7.13 µM | 4.31 µM | 86.1 µM | 3.48 µM | 38.2 µM | 8.16 µM | > 100 µM |
| C[C@]12CCc3sc(Nc4ccc(OC(F)(F)F)cc4)nc3C1=CC[C@@H]1[C@@H]2CC[C@]2(C)C(=O)CC[C@@H]12 | 3.56 µM | 15 µM | 3.35 µM | 16.1 µM | 2.15 µM | 6.43 µM | 1.02 µM | 3.77 µM | 1.78 µM | 7.42 µM | 2.12 µM | 9.93 µM | 2.14 µM | 4.56 µM | 2.09 µM | 5.77 µM | 2.74 µM | > 100 µM | 1.92 µM | 4.19 µM |
| CCOc1cccc(/C=N/NC(=O)c2cccc(Nc3ccnc(C(F)(F)F)c3)c2)c1O | 1.48 µM | 17.6 µM | 3.73 µM | > 100 µM | 0.814 µM | 19 µM | 2.16 µM | > 100 µM | 1.44 µM | 36.5 µM | 1.63 µM | > 100 µM | 4.54 µM | 32.5 µM | 15 µM | > 76.9 µM | 0.212 µM | 8.67 µM | 0.682 µM | 15.3 µM |
| Cc1ccc(S(=O)(=O)N=Nc2c(O)[nH]c3cc(O)c(C(=O)O)cc23)cc1 |  | > 100 µM |  | > 100 µM |  | > 100 µM |  | > 100 µM |  | > 100 µM |  | > 100 µM |  | > 100 µM |  | > 100 µM |  | > 100 µM |  | > 100 µM |
| O=C(O)CSCCc1ccccc1 |  | > 100 µM |  | > 100 µM |  | > 100 µM |  | > 100 µM |  | > 100 µM |  | > 100 µM |  | > 100 µM |  | > 100 µM |  | > 100 µM |  | > 100 µM |

Reference: PubChem BioAssay (NCI)
